# Data published in paper PMC5007978, “A chemical with proven clinical safety rescues Down-syndrome-related phenotypes in through DYRK1A inhibition” (Disease Models & Mechanisms, 2016).
# What was measured:
# [1] = tested on: calcineurin-NFAT signaling; test: NFAT-RE promoter luciferase reporter assay (NRE-Luc) in 293T cells; type: cell-based; conditions: IM and PMA (10 nM), 1, 3 and 10 μM
# Protocol: Fig. 5. […] Firefly luciferase activities were measured using One-Glo reagents. Luciferase activity in the sample with reporter plasmid alone was set to 1, and the relative luciferase activities were calculated. Means±s.d. were determined from two independent experiments.
# Treatment with IM and phorbol 12-myristate 13-acetate (PMA) induced a dramatic increase in luciferase activity (∼20 fold) as a result of the nuclear translocation of NFATc1 and the subsequent transcriptional activation (Fig. 5B). In this situation, the overexpression of DYRK1A suppressed the stimulatory effect of IM and PMA by 75%, resulting in a 4.5-fold increase in luciferase activity compared with that of the control (Fig. 5B).
# The firefly luciferase reporter assay was performed using a One-Glo Assay System (Promega) according to the manufacturer's instructions. The transcriptional activity of NFATc1 in 293T cells was measured with a reporter vector (pGL4.30 luc2P/NFAT-RE/Hygro) (Promega) that expresses the firefly luciferase gene under the control of an NFAT-RE promoter. 293T cells were transfected with the DYRK1A-expressing plasmid and reporter plasmid. On the next day, cells were treated with IM (2.5 μM) and phorbol-12-myristate-13-acetate (10 nM) along with the indicated amounts of inhibitors. Cells were further incubated for 8 h and then cell lysates were harvested to measure luciferase activity.
# [2] = target: T1, DYRK1A (Homo sapiens, UniProt Q13627); test: DYRK1A-mediated Tau (T212) phosphorylation in transfected 293T cells, western blot; type: cell-based; set-up: expressed in transfected cells; host or cells: 293T cells; conditions: 6 h treatment, western blot, estimated, read-out: IC50 on Tau phosphorylation (T212) induced by DYRK1A overexpression
# [3] = target: T1, DYRK1A; set-up: expressed in transfected cells; host or cells: 293T cells; method as in Ogawa et al., 2010; conditions: ref Ogawa et al., 2010; cited from earlier work
# [4] = target: T2, DYRK3 (Homo sapiens, UniProt O43781); test: In vitro kinase assay, recombinant human DYRK3 (Life Technologies); type: biochemical
# T2 construct: purchased Life Technologies (Kinase Profiler service)
# T2 sequence (O43781 1-588): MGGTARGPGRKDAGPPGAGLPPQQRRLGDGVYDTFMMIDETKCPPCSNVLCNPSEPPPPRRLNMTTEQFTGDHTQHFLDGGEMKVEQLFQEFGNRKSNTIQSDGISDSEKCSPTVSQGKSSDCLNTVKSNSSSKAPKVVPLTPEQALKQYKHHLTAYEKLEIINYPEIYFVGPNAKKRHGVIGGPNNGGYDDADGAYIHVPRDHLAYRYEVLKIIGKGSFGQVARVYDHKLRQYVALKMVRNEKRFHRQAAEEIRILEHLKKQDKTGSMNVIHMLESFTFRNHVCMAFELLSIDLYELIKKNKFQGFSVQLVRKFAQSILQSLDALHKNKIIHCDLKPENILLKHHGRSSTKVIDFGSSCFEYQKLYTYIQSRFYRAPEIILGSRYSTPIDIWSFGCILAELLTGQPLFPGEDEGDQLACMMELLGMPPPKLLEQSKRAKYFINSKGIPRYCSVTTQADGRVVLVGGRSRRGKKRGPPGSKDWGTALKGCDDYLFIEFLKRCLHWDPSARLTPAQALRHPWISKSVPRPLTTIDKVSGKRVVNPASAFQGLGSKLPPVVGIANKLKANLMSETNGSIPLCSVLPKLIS
# [5] = target: T3, DYRK4 (Homo sapiens, UniProt Q9NR20); test: In vitro kinase assay, recombinant human DYRK4 (Life Technologies); type: biochemical
# T3 construct: purchased Life Technologies (Kinase Profiler service)
# T3 sequence (Q9NR20 1-520): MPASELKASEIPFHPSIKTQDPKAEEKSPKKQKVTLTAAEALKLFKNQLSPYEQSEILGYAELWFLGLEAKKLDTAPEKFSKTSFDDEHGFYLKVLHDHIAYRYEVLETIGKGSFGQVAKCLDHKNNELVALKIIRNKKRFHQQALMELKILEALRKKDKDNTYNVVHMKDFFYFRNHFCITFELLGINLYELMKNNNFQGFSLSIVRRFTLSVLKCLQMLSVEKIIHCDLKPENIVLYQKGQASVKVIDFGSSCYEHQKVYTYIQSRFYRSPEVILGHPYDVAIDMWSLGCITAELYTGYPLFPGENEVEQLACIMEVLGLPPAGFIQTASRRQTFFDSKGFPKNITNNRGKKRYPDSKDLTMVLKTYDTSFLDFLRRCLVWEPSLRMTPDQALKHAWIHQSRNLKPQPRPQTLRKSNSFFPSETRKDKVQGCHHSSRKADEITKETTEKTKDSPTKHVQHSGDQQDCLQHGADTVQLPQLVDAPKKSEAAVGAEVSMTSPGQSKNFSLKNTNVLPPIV
# [6] = tested on: mnb-overexpressing Drosophila; test: Wing vein (LV5) defect rescue in mnb-overexpressing flies (MS1096-gal4); type: in vivo, Drosophila melanogaster
SMILES,NFATc1-dependent transcriptional activation (NRE-Luc) suppressed by DYRK1A overexpression [1],IC50 [2] [nM],DYRK1A inhibitory activity compared with harmine [3],IC50 [4] [nM],IC50 [5] [nM],concentration required for a similar rescue of wing (LV5) defect [6] [µM]
CCN1/C(=C/C(C)=O)Sc2ccc(OC(C)=O)cc21 [proINDY],dose-dependently derepressed,~2000,slightly weaker inhibitory activities than harmine,,,
CCN1/C(=C/C(C)=O)Sc2ccc(O)cc21 [INDY],dose-dependently derepressed,,slightly weaker inhibitory activities than harmine,,,
COc1ccc2c(c1)[nH]c1c(C)nccc12 [harmine],dose-dependently derepressed,,,563,5880,10 to 25
